Assay results published in ChEMBL document CHEMBL1130263 (J Med Chem, 1997).

Tests used:
[1] = target: T1, Adrenergic receptor alpha-1 (Rattus norvegicus, UniProt P15823+P23944+P43140); experiment: Inhibition of [3H]prazosin binding to Alpha-1 adrenergic receptor in rat brain membranes
T1 sequence (P15823 whole entry): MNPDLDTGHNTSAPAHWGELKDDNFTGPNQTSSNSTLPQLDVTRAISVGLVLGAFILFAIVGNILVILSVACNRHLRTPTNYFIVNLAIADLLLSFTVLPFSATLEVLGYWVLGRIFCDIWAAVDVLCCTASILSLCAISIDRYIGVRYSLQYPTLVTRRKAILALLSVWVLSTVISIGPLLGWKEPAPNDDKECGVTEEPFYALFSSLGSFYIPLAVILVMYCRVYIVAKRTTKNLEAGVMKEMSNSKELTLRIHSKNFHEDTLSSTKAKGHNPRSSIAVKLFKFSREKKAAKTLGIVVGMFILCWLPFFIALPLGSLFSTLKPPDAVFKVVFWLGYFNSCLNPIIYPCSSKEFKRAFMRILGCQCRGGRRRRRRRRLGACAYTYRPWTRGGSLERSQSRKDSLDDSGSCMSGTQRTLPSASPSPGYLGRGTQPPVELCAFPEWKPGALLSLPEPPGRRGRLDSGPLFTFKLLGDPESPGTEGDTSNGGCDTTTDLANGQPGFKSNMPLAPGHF
T1 sequence (P23944 whole entry): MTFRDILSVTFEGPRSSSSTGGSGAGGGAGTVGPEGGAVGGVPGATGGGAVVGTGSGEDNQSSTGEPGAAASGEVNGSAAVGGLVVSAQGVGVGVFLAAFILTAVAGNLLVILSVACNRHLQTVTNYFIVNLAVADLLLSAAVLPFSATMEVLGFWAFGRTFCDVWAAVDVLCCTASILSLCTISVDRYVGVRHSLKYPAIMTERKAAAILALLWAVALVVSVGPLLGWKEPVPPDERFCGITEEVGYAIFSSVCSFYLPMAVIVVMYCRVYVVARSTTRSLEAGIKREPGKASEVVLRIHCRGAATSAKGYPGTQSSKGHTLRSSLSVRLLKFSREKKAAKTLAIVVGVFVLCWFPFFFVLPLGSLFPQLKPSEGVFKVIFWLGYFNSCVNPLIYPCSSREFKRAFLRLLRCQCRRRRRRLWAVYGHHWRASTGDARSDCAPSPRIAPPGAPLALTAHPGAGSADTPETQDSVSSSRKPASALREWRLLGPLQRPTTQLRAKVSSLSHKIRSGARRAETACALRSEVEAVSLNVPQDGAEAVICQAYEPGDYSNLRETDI
T1 sequence (P43140 whole entry): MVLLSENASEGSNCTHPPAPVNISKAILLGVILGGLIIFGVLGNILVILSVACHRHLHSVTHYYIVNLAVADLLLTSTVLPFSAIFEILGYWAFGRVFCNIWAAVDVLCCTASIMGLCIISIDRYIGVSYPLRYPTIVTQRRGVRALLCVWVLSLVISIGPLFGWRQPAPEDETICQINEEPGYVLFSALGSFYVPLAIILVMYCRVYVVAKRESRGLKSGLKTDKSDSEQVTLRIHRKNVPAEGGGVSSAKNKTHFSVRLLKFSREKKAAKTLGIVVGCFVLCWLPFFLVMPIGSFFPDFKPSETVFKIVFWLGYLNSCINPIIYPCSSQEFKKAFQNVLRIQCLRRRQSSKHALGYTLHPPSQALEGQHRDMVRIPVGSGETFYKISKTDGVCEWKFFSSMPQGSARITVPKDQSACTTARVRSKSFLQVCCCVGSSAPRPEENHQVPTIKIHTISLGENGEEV

D(1A) dopamine receptor = D(1A) dopamine receptor (Rattus norvegicus, UniProt P18901)
Description: Inhibitory binding of [3H]SCH-23390 to Dopamine receptor D1 in membranes from rat corpus striatum

[2] = target: 5-hydroxytryptamine receptor 2A (Rattus norvegicus, UniProt P14842); experiment: Inhibition of [3H]ketanserin binding to 5-hydroxytryptamine 2A receptor from rat brain
[3] = target: T2, Muscarinic acetylcholine receptor M1 (Homo sapiens, UniProt P11229); experiment: Inhibitory binding of [3H]pirenzepine to human Muscarinic acetylcholine receptor M1 in membranes from CHO-K1 cells; assay type: cell-based
T2 sequence (P11229 whole entry): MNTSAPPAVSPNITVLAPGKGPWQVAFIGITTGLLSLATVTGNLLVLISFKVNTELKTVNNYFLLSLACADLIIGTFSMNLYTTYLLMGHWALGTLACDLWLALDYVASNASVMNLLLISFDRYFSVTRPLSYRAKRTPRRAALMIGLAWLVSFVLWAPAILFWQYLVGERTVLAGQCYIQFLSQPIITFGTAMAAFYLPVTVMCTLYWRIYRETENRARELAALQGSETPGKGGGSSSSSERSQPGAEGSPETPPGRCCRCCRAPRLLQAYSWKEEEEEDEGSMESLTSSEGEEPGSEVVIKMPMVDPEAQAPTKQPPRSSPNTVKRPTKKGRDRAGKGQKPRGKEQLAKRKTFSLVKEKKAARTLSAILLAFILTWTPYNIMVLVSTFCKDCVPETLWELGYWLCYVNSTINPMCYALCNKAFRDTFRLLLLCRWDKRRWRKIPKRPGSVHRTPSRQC

[4] = target: T3, 5-hydroxytryptamine receptor 2C (Rattus norvegicus, UniProt P08909)
T3 sequence (P08909 whole entry): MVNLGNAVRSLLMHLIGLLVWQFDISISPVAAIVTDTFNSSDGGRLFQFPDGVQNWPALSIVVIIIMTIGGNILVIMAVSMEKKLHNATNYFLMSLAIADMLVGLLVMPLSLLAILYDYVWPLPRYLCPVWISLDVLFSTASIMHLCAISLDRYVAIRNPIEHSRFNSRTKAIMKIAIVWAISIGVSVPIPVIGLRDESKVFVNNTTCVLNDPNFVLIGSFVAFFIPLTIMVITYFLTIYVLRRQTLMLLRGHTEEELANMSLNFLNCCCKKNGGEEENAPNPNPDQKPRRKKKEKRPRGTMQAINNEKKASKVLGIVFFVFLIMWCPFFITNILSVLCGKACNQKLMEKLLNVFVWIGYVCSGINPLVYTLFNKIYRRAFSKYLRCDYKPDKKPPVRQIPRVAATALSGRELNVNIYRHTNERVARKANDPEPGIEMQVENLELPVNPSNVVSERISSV
Description: Inhibition of [3H]mesulergine binding to 5-hydroxytryptamine 2C receptor in rat brain membranes

Histamine H1 receptor = Histamine H1 receptor (Rattus norvegicus, UniProt P31390); experiment: Inhibitory binding of [3H]mepyramine to histamine H1 receptors in rat brain membranes; assay type: cell membranes
Rattus norvegicus [5] = experiment: Locomotor activity in male Wistar rats after a dose of 10 uM/kg, 30 min before 1 mg/kg of apomorphine administration; assay type: functional
Rattus norvegicus [6] = experiment: Locomotor activity in male Wistar rats after a dose of 100 uM/kg, 30 min before 1 mg/kg of apomorphine administration; assay type: functional
Rattus norvegicus [7] = experiment: Catalytic action on male Wistar rats after subcutaneous administration of 100 µmol/kg dose of compound
Rattus norvegicus [8] = experiment: Locomotor activity in male Wistar rats after a dose of 3 uM/kg, 30 min before 1 mg/kg of apomorphine administration; assay type: functional
Rattus norvegicus [9] = experiment: Locomotor activity in male Wistar rats after a dose of 30 uM/kg, 30 min before 1 mg/kg of apomorphine administration; assay type: functional
Rattus norvegicus [10] = experiment: Catalytic action on male Wistar rats after subcutaneous administration of 10 µmol/kg dose of compound
Rattus norvegicus [11] = experiment: Catalytic action on male Wistar rats after subcutaneous administration of 0.03 µmol/kg dose of compound
Rattus norvegicus [12] = experiment: Locomotor activity in male Wistar rats after a dose of 0.3 uM/kg, 30 min before 1 mg/kg of apomorphine administration; assay type: functional
Rattus norvegicus [13] = experiment: Catalytic action on male Wistar rats after subcutaneous administration of 0.3 µmol/kg dose of compound
Rattus norvegicus [14] = experiment: Locomotor activity in male Wistar rats after a dose of 0.03 uM/kg, 30 min before 1 mg/kg of apomorphine administration; assay type: functional
Rattus norvegicus [15] = experiment: Locomotor activity in male Wistar rats after a dose of 0.003 uM/kg, 30 min before 1 mg/kg of apomorphine administration; assay type: functional
Rattus norvegicus [16] = experiment: Catalytic action on male Wistar rats after subcutaneous administration of 0.003 µmol/kg dose of compound
Rattus norvegicus [17] = experiment: Locomotor activity in male Wistar rats after a dose of 1.0 uM/kg, 30 min before 1 mg/kg of apomorphine administration; assay type: functional
Rattus norvegicus [18] = experiment: Catalytic action on male Wistar rats after subcutaneous administration of 3.0 µmol/kg dose of compound
Rattus norvegicus [19] = experiment: Locomotor activity in male Wistar rats after a dose of 3.0 uM/kg, 30 min before 1 mg/kg of apomorphine administration; assay type: functional
Rattus norvegicus [20] = experiment: Catalytic action on male Wistar rats after subcutaneous administration of 1.0 µmol/kg dose of compound
Rattus norvegicus [21] = experiment: Catalytic action on male Wistar rats after subcutaneous administration of 30 µmol/kg dose of compound

5-hydroxytryptamine receptor 2A, sequence (P14842 whole entry): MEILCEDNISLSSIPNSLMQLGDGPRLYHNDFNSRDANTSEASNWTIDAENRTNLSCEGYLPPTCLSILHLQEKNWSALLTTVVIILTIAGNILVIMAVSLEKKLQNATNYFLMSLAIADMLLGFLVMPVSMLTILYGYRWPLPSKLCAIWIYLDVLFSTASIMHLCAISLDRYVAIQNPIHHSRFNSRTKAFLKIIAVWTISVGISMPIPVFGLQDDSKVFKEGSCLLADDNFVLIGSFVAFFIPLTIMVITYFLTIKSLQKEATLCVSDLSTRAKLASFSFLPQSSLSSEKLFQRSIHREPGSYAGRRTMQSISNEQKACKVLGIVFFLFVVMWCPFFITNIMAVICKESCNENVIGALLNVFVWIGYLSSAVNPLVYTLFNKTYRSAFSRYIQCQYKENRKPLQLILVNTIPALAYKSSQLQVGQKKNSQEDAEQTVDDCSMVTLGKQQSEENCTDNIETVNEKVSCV
D(1A) dopamine receptor, sequence (P18901 whole entry): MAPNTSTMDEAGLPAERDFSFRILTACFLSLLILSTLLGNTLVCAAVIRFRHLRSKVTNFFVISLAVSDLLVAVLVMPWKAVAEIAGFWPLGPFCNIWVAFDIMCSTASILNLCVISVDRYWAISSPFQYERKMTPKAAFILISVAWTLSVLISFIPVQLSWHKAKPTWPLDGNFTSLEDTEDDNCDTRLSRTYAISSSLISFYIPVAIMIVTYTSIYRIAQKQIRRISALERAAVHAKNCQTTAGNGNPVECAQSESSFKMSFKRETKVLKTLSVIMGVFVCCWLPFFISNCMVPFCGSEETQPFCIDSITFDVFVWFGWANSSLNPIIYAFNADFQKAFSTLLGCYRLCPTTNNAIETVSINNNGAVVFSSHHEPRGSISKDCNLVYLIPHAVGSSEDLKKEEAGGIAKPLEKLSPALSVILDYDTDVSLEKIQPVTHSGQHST
Histamine H1 receptor, sequence (P31390 whole entry): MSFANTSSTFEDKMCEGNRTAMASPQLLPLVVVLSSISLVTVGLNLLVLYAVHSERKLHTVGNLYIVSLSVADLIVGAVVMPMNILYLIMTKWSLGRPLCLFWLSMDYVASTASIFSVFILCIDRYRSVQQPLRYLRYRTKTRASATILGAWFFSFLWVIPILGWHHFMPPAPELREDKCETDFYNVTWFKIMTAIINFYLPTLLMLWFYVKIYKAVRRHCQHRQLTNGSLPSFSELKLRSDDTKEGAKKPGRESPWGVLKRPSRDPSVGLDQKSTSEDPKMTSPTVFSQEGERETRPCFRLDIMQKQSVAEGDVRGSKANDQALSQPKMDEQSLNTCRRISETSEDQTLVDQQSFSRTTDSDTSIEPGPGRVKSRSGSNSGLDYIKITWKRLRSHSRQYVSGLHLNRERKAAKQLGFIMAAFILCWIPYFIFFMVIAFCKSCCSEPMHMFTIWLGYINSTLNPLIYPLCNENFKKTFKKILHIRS

SMILES	IC50 [1] [nM]	IC50 (D(1A) dopamine receptor) [nM]	IC50 [2] [nM]	IC50 [3] [nM]	IC50 [4] [nM]	Locomotor activity (Rattus norvegicus [5])	Catalyptic action (Rattus norvegicus [10])	further results
CN1CCN(C2=Nc3ccccc3Nc3ccc(O)cc32)CC1	260	550	35	37	81			
CN1CCN(C2=Nc3cc(OS(=O)(=O)C(F)(F)F)ccc3Nc3ccccc32)CC1	> 1000	930	550	35	620			IC50 (Histamine H1 receptor): 720 nM
CN1CCN(C2=Nc3cc(O)ccc3Nc3ccccc32)CC1	1200	9800		27	440			
CN1CCN(C2=Nc3ccccc3Nc3ccc(OS(=O)(=O)C(F)(F)F)cc32)CC1	12	64	8	1200	34	102	0	Locomotor activity (Rattus norvegicus [6]): 8; Catalyptic action (Rattus norvegicus [7]): 0; Locomotor activity (Rattus norvegicus [8]): 87; IC50 (Histamine H1 receptor): 47 nM; Locomotor activity (Rattus norvegicus [9]): 22
COc1ccc2c(c1)C(N1CCN(C)CC1)=Nc1ccccc1N2	120	550	12	39	21			
COc1ccc2c(c1)N=C(N1CCN(C)CC1)c1ccccc1N2	240	7400		19	86			
CN1CCN(C2=Nc3cc(Cl)ccc3Nc3ccccc32)CC1 [CLOZAPINE]						98	0	Locomotor activity (Rattus norvegicus [6]): 7; Catalyptic action (Rattus norvegicus [7]): 0
O=C(CCCN1CCC(O)(c2ccc(Cl)cc2)CC1)c1ccc(F)cc1 [HALOPERIDOL]								Catalyptic action (Rattus norvegicus [11]): 75; Locomotor activity (Rattus norvegicus [12]): 1; Catalyptic action (Rattus norvegicus [13]): 100; Locomotor activity (Rattus norvegicus [14]): 9; Locomotor activity (Rattus norvegicus [15]): 88; Catalyptic action (Rattus norvegicus [16]): 0
CN1CCN(C2=Nc3ccccc3Nc3ccc(Cl)cc32)CC1 [ISOCLOZAPINE]	64	11		6		3	25	Locomotor activity (Rattus norvegicus [12]): 114; Catalyptic action (Rattus norvegicus [13]): 0; Locomotor activity (Rattus norvegicus [17]): 82; Locomotor activity (Rattus norvegicus [9]): 3; Catalyptic action (Rattus norvegicus [18]): 0; Locomotor activity (Rattus norvegicus [19]): 65; Catalyptic action (Rattus norvegicus [20]): 0; Catalyptic action (Rattus norvegicus [21]): 75
